Laboratory results reported in patent US4996225A, “Tri-phenyl alkane derivatives and their oestrogenic, anti-oestrogenic and progestanic uses” (Farmos Group Ltd., priority 1982, dated 1991).
One block for each compound: values may come before it.

Legend:
oestrogen receptors = biological target: T1, oestrogen receptors (Rattus norvegicus, UniProt P06211); assay: affinity for oestrogen receptors, competition with 3H-17-β-estradiol in rat uterus cytosol (dextran-charcoal method); type: binding; conditions: read-out: Estrogen receptor affinity (concentration of compound where 50% competition (inhibition) with 3H-estradiol occurred)
T1 construct: rat uterus cytosol preparation; from tissue; host or cells: rat uterus cytosol
T1 sequence (P06211 1-600): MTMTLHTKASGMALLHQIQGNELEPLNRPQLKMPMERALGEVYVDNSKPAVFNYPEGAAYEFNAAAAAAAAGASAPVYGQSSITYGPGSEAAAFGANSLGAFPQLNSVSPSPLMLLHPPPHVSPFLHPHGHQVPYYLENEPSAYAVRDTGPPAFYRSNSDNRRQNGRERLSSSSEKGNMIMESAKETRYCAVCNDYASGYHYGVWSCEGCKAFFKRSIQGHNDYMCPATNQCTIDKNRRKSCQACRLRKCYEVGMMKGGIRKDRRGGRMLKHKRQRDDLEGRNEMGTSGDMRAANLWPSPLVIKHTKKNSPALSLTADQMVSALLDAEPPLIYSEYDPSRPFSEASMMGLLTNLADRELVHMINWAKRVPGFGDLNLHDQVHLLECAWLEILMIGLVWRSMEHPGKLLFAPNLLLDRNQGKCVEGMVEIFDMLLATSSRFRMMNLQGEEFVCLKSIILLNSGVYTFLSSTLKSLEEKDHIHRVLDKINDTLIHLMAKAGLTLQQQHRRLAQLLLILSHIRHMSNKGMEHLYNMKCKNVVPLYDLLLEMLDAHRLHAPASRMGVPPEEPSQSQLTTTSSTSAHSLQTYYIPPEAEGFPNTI
Experimental: The affinity of the new compounds for oestrogen receptors was determined by the ability to compete with ^3 H-labelled 17-β-estradiol in rat uterus cytosol preparation. After incubation, receptor-bound and receptor-unbound ligands were separated by a known dextrancharcoal method.

immature mouse uterus [1] = assay: oestrogenic effect, uterus weight of immature mice; type: in vivo; conditions: for estrogenic effect of their own (in words): up to 5 mg/kg
Experimental: (§1) The oestrogen-antiestrogen (progesterone) effect of the new compounds in vivo was determined as follows: (1) The oestrogenic properties were determined by administering the new compounds, suspended in sesame oil, subcutaneously to 21 days old immature mice on three consecutive days. The mice were killed on the fourth day and the uterus was weighed. […] The weight correlates with the oestrogenic effect of the compound tested. […] In this case, the ability of the molecules to inhibit oestrogen-induced uterus weight increase was also investigated.

[2] = test system: estradiol induced weight increase in immature mouse uterus; assay: antiestrogenic effect, inhibition of oestrogen-induced uterus weight increase in immature mice; type: in vivo; conditions: for inhibition of estradiol induced effect in mouse uterus / inhibition of estradiol-induced uterus weight increase / inhibition of estradiol-induced uterus weight increase (in words): 5 mg/kg; for anti-estrogenic effect (in words): immature mouse uterus; for effect with estradiol (in words) / reduction in the weights of mice uterus, with estradiol: with estradiol 0.05 mg/kg; for inhibition of estradiol-induced uterus weight increase / inhibition of estradiol-induced uterus weight increase (in words): estradiol 5 μg/kg
Experimental: as §1

immature mouse uterus [3] = assay: progestanic effect, uterus weight of immature mice (alone or with medroxyprogesterone acetate); type: in vivo; design: reduction in the weight of a mouse uterus, given alone / reduction in the weight of uterus with medroxyprogesterone / reduction in the weights of mice uterus, given alone: concentration or dose not given beside the values
[4] = test system: MCF-7 cell line (human mammary adenocarcinoma); assay: anti-tumour effect in vitro, growth of MCF-7 cell line (bioluminescence assay, intracellular ATP); type: cell-based; conditions: read-out: Antitumour effect against MCF-7 cell line (IC50 = concentration of compound where 50% inhibition of cell growth could be seen)
Experimental: The anti-tumour effect was studied in vitro as follows:
The amount of living cells after 4 h, 24 h and 48 h incubations were determined by bioluminescence assay (intracellular ATP determination).
inhibition of cell growth could be seen.

[5] = test system: DMBA-induced rat mammary adenocarcinomas; assay: antitumour effect in vivo against DMBA-induced rat mammary adenocarcinoma; conditions: for amount of new tumours (in words) / growth rate of the tumours (in words): rat, in vivo
Experimental: The anti-tumour effect was investigated in vivo against DMBA-induced rat mammary adenocarcinomas, transplantable mammary and ovarial adenocarcinoma and transplantable prostatic squamous cell carcinoma by the following methods:
Mammary adenocarcinomas were induced by DMBA in 35-40 days old female rats. […] Tumour size and numbers of tumours were evaluated twice a week. Tumour sizes in the control group, treated with solvent, were compared with the test groups.
The size refers to the width×height of the tumour. The growth rate is a difference between sizes compared with that of the first day of the treatment.

[6] = with medroxyprogesterone 0.06 mg/kg

IC50 (oestrogen receptors): 1 to 10 µM
Structure (SMILES): OCC/C(=C(\c1ccccc1)c1ccc(O)cc1)c1ccccc1 [Compound 11, 1,2-diphenyl-1-(4-hydroxyphenyl)-1-buten-4-ol]
estrogenic effect of their own (in words) (immature mouse uterus [1]): no estrogenic effect of their own
inhibition of estradiol induced effect in mouse uterus [2]: 31%
effect given alone: antiestrogenic (in words) ([2]; given alone): anti-
anti-estrogenic effect (in words) [2]: possessed anti-estrogenic effects
effect with estradiol (in words) [2]: anti-
reduction in the weights of mice uterus, with estradiol [2]: 31%
reduction in the weight of a mouse uterus, given alone (immature mouse uterus [3]; given alone): 56%
reduction in the weights of mice uterus, given alone (immature mouse uterus [3]; given alone, Table 2A): 56%
interaction with medroxyprogesterone (in words) (immature mouse uterus [3]; with medroxyprogesterone): synergistic effect with medroxyprogesterone
effect with medroxyprogesterone (in words) (immature mouse uterus [3]; [6]): no inhibition
reduction in the weights of mice uterus with medroxyprogesterone, compared to control (immature mouse uterus [3]; [6]): 40%

IC50 (oestrogen receptors): 1 to 10 µM
Structure (SMILES): COc1ccc(C(=C(CCO)c2ccccc2)c2ccccc2)cc1 [Compound 3, 1,2-diphenyl-1-(4-methoxyphenyl)-1-buten-4-ol]

IC50 [4]: < 5 µM
Structure (SMILES): ClCC/C(=C(\c1ccccc1)c1ccc(OCCN2CCCC2)cc1)c1ccccc1 [Compound 25, 4-chloro-1,2-diphenyl-1-[4-[2-(1-pyrrolidinyl)-ethoxy]phenyl]-1-butene]
increase in uterus weight (immature mouse uterus [1]; 5 mg/kg): ≤ 55%
inhibition of estradiol-induced uterus weight increase [2]: 68-100%
amount of new tumours (in words) [5]: the amount of new tumours decreased
growth rate of the tumours (in words) [5]: the growth rate of the tumours decreased

IC50 (oestrogen receptors): 0.1 to 10 µM
Structure (SMILES): OCCCC(=C(c1ccccc1)c1ccc(O)cc1)c1ccccc1 [Compound 6, 1,2-diphenyl-1-(4-hydroxyphenyl)-1-penten-5-ol]

IC50 [4]: 5 to 10 µM
Structure (SMILES): OCCC/C(=C(/c1ccccc1)c1ccc(O)cc1)c1ccccc1 [6, (E)-isomer]

IC50 (oestrogen receptors): 1 to 10 µM
IC50 [4]: 5 to 10 µM
Structure (SMILES): Oc1ccc(/C(=C(/CCCl)c2ccccc2)c2ccccc2)cc1 [Compound 15, 4-chloro-1,2-diphenyl-1-(4-hydroxyphenyl)-1-butene]
effect given alone: estrogenic (in words) (immature mouse uterus [1]): estrogenic
increase in the weights of mice uterus, given alone (immature mouse uterus [1]): 20%
inhibition of estradiol induced effect in mouse uterus [2]: 25%
anti-estrogenic effect (in words) [2]: possessed anti-estrogenic effects
effect with estradiol (in words) [2]: anti-
reduction in the weights of mice uterus, with estradiol [2]: 25%

IC50 [4]: 1 to 5 µM
Structure (SMILES): CC(=O)OCC/C(=C(\c1ccccc1)c1ccc(OCCN(C)C)cc1)c1ccccc1 [Compound 19]
increase in uterus weight (immature mouse uterus [1]; 5 mg/kg): ≤ 30%
inhibition of estradiol-induced uterus weight increase (in words) [2]: did not inhibit
growth rate of the tumours (in words) [5]: only the growth rate of the tumours was reduced

IC50 (oestrogen receptors): 0.1 to 1 µM
Structure (SMILES): Oc1ccc(C2CCOC2(c2ccccc2)c2ccc(O)cc2)cc1 (stereo not drawn) [Compound 9, 2-phenyl-2,3-bis(4-hydroxyphenyl)-tetrahydrofuran]
effect given alone: estrogenic (in words) (immature mouse uterus [1]): estrogenic
increase in the weights of mice uterus, given alone (immature mouse uterus [1]): 50%
effect with estradiol (in words) [2]: not anti-
reduction in the weights of mice uterus, with estradiol [2]: < 10%

IC50 (oestrogen receptors): 10 to 100 µM
IC50 [4]: 5 to 10 µM
Structure (SMILES): CN(C)CCOc1ccc([C@@]2(c3ccccc3)OCC[C@@H]2c2ccccc2)cc1 (relative stereo) [Compound 16, 2,3-diphenyl-2-[4-[2-(N,N-dimethylamino)-ethoxy]phenyl]-tetrahydrofuran]
estrogenic effect of their own (in words) (immature mouse uterus [1]): no estrogenic effect of their own

IC50 (oestrogen receptors): 10 to 100 µM
Structure (SMILES): CN(C)CCOc1ccc([C@](O)(c2ccccc2)[C@H](CCO)c2ccccc2)cc1 (relative stereo) [Compound 17, 1,2-diphenyl-1-[4-[2-(N,N-dimethylamino)-ethoxy]phenyl]butane-1,4-diol]
estrogenic effect of their own (in words) (immature mouse uterus [1]): no estrogenic effect of their own

IC50 (oestrogen receptors): 10 to 100 µM
IC50 [4]: 1 to 5 µM
Structure (SMILES): CN(C)CCOc1ccc(/C(=C(\CCO)c2ccccc2)c2ccccc2)cc1 [Compound 12, 1,2-diphenyl-1-[4-[2-(N,N-dimethylamino)-ethoxy]phenyl]-1-buten-4-ol]
antitumour effect against DMBA-induced mammary cancer (in words) ([5]; compared with compound 7): Antitumour effect less than that of compound 7

IC50 (oestrogen receptors): 1 to 10 µM
Structure (SMILES): OCC[C@H](c1ccccc1)[C@@](O)(c1ccccc1)c1ccc(O)cc1 (relative stereo) [Compound 1, 1,2-diphenyl-1-(4-hydroxyphenyl)-butane-1,4-diol]

Structure (SMILES): CC(=O)O[C@]1(C(C)=O)CC[C@H]2[C@@H]3C[C@H](C)C4=CC(=O)CC[C@]4(C)[C@H]3CC[C@@]21C [Medroxyprogesterone acetate, reference compound]
inhibition in the weight of immature mouse uterus (immature mouse uterus [3]; positive control): up to 40%

IC50 [4]: 1 to 5 µM
Structure (SMILES): CCN(CC)CCOc1ccc(/C(=C(/CCCl)c2ccccc2)c2ccccc2)cc1 [Compound 24, 4-chloro-1,2-diphenyl-1-[4-[2-(N,N-diethylamino)ethoxy]phenyl]-1-butene]
increase in uterus weight (immature mouse uterus [1]; 5 mg/kg): ≤ 55%
inhibition of estradiol-induced uterus weight increase [2]: less than 67%
growth rate of the tumours (in words) [5]: only the growth rate of the tumours was reduced

IC50 [4]: 1 to 5 µM
Structure (SMILES): ClCC/C(=C(/c1ccccc1)c1ccc(OCCN2CCCC2)cc1)c1ccccc1 [Compound 26, 4-chloro-1,2-diphenyl-1-[4-[2-(1-pyrrolidinyl)-ethoxy]phenyl]-1-butene]
increase in uterus weight (immature mouse uterus [1]; 5 mg/kg): ≤ 30%
inhibition of estradiol-induced uterus weight increase [2]: less than 33%
growth rate of the tumours (in words) [5]: only the growth rate of the tumours was reduced

IC50 (oestrogen receptors): 0.1 to 1 µM
Structure (SMILES): OCC/C(=C(/c1ccccc1)c1ccc(O)cc1)c1ccccc1 [Compound 10, 1,2-diphenyl-1-(4-hydroxypheny)-1-buten-4-ol]

Structure (SMILES): CN(C)CCOc1ccc(/C(=C(/CCO)c2ccccc2)c2ccccc2)cc1 [Compound 20, 1,2-diphenyl-1-[4-[2-(N,N-dimethylamino)ethoxy]phenyl]-1-buten-4-ol]
increase in uterus weight (immature mouse uterus [1]; 5 mg/kg): less than 30%
increase in uterus weight (in words) (immature mouse uterus [1]; 5 mg/kg): statistically significant increase in uterus weight
inhibition of estradiol-induced uterus weight increase [2]: less than 33%
inhibition of estradiol-induced uterus weight increase (in words) [2]: inhibited the uterus weight increase in a statistically significant manner
growth rate of the tumours (in words) [5]: only the growth rate of the tumours was reduced

IC50 [4]: 1 to 5 µM
Structure (SMILES): ClCC[C@@H](c1ccccc1)[C@H](c1ccccc1)c1ccc(OCCN2CCCC2)cc1 (relative stereo) [Compound 27, 4-chloro-1,2-diphenyl-1-[4-[2-(1-pyrrolidinyl)-ethoxy]phenyl]-butane]
increase in uterus weight (immature mouse uterus [1]; 5 mg/kg): ≤ 55%
inhibition of estradiol-induced uterus weight increase [2]: less than 33%
amount of new tumours (in words) [5]: the amount of new tumours decreased
growth rate of the tumours (in words) [5]: the growth rate of the tumours decreased

Structure (SMILES): CN(C)CCOc1ccc(/C(=C(\CCCl)c2ccccc2)c2ccccc2)cc1 [Compound 18, 4-chloro-1,2-diphenyl-1-[4-[2-(N,N-dimethylamino)ethoxy]phenyl]-1-butene]
effect given alone: estrogenic (in words) (immature mouse uterus [1]): estrogenic
increase in the weights of mice uterus, given alone (immature mouse uterus [1]): 20%
effect with estradiol (in words) [2]: not anti-
reduction in the weights of mice uterus, with estradiol [2]: < 10%
effect with medroxyprogesterone (in words) (immature mouse uterus [3]; [6]): no effect
IC50 [4]: 1 to 5 µM

IC50 [4]: 5 to 10 µM
Structure (SMILES): ClCC[C@H](c1ccccc1)[C@H](c1ccccc1)c1ccc(OCCN2CCCC2)cc1 (relative stereo) [Compound 28, 4-chloro-1,2-diphenyl-1-[4-[2-(1-pyrrolidinyl)-ethoxy]phenyl]-butane]
increase in uterus weight (immature mouse uterus [1]; 5 mg/kg): ≤ 55%
inhibition of estradiol-induced uterus weight increase [2]: 68-100%
amount of new tumours (in words) [5]: the amount of new tumours decreased
growth rate of the tumours (in words) [5]: the growth rate of the tumours decreased

IC50 (oestrogen receptors): 1 to 10 µM
Structure (SMILES): OCCC(c1ccc(O)cc1)C(O)(c1ccccc1)c1ccc(O)cc1 (stereo not drawn) [Compound 8, 1-phenyl-1,2-bis(4-hydroxyphenyl)-butane-1,4-diol]
